The experiment deals with human H3 receptor (Homo sapiens, UniProt Q9Y5N1). As to the kind of experiment: H3 receptor binding test (R(−)-α-methyl[3H]histamine). More on the design: purchased Euroscreen ES-392-M; host or cells: CHO-K1. The conditions noted are these: inhibition of R(−)-α-methyl[3H]histamine (2 nM) binding, membrane of human H3 receptor-expressing CHO-K1 cells. As for the experimental part: A membrane preparation of human H3 receptor-expressing CHO-K1 cells (Euroscreen, ES-392-M, 15 μg protein/200 μl), R(−)-α-methyl[^3H]histamine (Amersham, TRK-1017, specific activity: 1.74 TBq/mmol, 2 nM) and a test drug were reacted at room temperature for 1 hour. After completion of the reaction, the reaction mixture was subjected to suction filtration through a 0.3% polyethyleneimine-treated glass filter (GF/C). The glass filter was washed five times with 50 mM Tris-HCl washing solution (pH 7.4) containing 5 mM EDTA. After washing, the glass filter was dried and a scintillator was added thereto, followed by measurement of radioactivity on the filter using a liquid scintillation counter.
human H3 receptor, sequence (Q9Y5N1 whole entry): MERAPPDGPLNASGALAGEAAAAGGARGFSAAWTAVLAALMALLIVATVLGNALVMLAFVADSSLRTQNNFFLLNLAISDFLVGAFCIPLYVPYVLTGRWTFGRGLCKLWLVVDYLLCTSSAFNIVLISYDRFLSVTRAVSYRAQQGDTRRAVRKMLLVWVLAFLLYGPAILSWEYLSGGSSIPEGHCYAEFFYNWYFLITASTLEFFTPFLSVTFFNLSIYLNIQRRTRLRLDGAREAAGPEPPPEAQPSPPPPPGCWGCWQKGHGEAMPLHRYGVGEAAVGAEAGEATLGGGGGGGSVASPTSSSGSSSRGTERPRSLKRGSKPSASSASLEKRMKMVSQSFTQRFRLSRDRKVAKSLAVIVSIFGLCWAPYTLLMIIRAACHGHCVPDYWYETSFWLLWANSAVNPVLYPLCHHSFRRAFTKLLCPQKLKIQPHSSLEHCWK
A fixed concentration (2 nM) of R(−)-α-methyl[^3H]histamine was reacted under the above conditions with each test drug at various concentrations to obtain an inhibition curve.

SMILES strings stand for the structures.

The values below come from US8183387B2, “Phenylpyrazole derivatives” (Taisho Pharmaceutical Co., Ltd, priority 2007, dated 2012).

As a reminder, the IC50 is the point on the concentration scale where inhibition reaches its midpoint.

On to `Cc1ccc(NC(=O)c2cnn(-c3ccc(OCCCN4CCCC4C)cc3)c2)cc1` (centres unmarked) [Example 17, N-(4-methylphenyl)-1-{4-[3-(2-methylpyrrolidin-1-yl)propoxy]phenyl}-1H-pyrazole-4-carboxamide], for which the IC50 is 3.9 nM. Next, `C[C@@H]1CCCN1CCCOc1ccc(-n2cc(C#N)cn2)cc1` [Example 3, 1-(4-{3-[(2R)-2-methylpyrrolidin-1-yl]propoxy}phenyl)-1H-pyrazole-4-carbonitrile]: 4.6 nM; `CC1(C)CCCN1CCCOc1ccc(-n2cc(C(=O)N3CCOCC3)cn2)cc1` [Example 10, 4-[(1-{4-[3-(2,2-dimethylpyrrolidin-1-yl)propoxy]phenyl}-1H-pyrazol-4-yl)carbonyl]morpholine]: 49.4 nM; `CC1CCCN1CCCOc1ccc(-n2cc(N3CCCCC3=O)cn2)cc1` (centres unmarked) [Example 36, 1-(1-{4-[3-(2-methylpyrrolidin-1-yl)propoxy]phenyl}-1H-pyrazol-4-yl)piperidin-2-one]: 4 nM.

With `CC1CCCN1CCCOc1ccc(-n2cc(N3CCOC3=O)cn2)cc1` (centres unmarked) [Example 34, 3-(1-{4-[3-(2-methylpyrrolidin-1-yl)propoxy]phenyl}-1H-pyrazol-4-yl)-1,3-oxazolidin-2-one], the IC50 stood at 2.1 nM. On to `C[C@@H]1CCCN1CCCOc1ccc(-n2cc(NC(=O)c3ccncc3)cn2)cc1` [Example 44, N-[1-(4-{3-[(2R)-2-methylpyrrolidin-1-yl]propoxy}phenyl)-1H-pyrazol-4-yl]pyridine-4-carboxamide], for which the IC50 was found to be 0.8 nM.

As for `CCN(CC)CCCOc1ccc(-n2cc(C(=O)NC(C)(C)C)cn2)cc1` [Example 14, N-tert-butyl-1-{4-[3-(diethylamino)propoxy]phenyl}-1H-pyrazole-4-carboxamide], the IC50 was 13.5 nM.

For the compound `C[C@@H]1CN(C(=O)c2cnn(-c3ccc(OCCCN4CCC[C@H]4C)cc3)c2)C[C@H](C)O1` [Example 53, (2,6-dimethylmorpholin-4-yl)[1-(4-{3-[(2R)-2-methylpyrrolidin-1-yl]propoxy}phenyl)-1H-pyrazol-4-yl]methanone], the IC50 amounted to 6.1 nM. As for `C[C@H]1CCCN1CCCOc1ccc(-n2cc(C(N)=O)cn2)cc1` [Example 4, 1-(4-{3-[(2S)-2-methylpyrrolidin-1-yl]propoxy}phenyl)-1H-pyrazole-4-carboxamide], the 50% inhibitory concentration (IC50) is 33 nM. Turning to `O=C(c1cnn(-c2ccc(OCCCN3CCCC3)cc2)c1)N1CCOCC1` [Example 8, 4-({1-[4-(3-pyrrolidin-1-ylpropoxy)phenyl]-1H-pyrazol-4-yl}carbonyl)morpholine], the IC50 came to 24.2 nM.

With `CC(=O)Nc1cnn(-c2ccc(OCCCN3CCC[C@H]3C)cc2)c1` [Example 37, N-[1-(4-{3-[(2R)-2-methylpyrrolidin-1-yl]propoxy}phenyl)-1H-pyrazol-4-yl]acetamide], the concentration for half-maximal inhibition (IC50) was found to be 2.1 nM. As to `CCN(C(C)=O)c1cnn(-c2ccc(OCCCN3CCCC3C)cc2)c1` (centres unmarked) [Example 39, N-ethyl-N-(1-{4-[3-(2-methylpyrrolidin-1-yl)propoxy]phenyl}-1H-pyrazol-4-yl)acetamide], the half-maximal inhibitory concentration (IC50) was 3.5 nM. Next, `C[C@@H]1CCCN1CCCOc1ccc(-n2cc(C(=O)c3ccc(F)cc3)cn2)cc1` [Example 23, (4-fluorophenyl)[1-(4-{3-[(2R)-2-methylpyrrolidin-1-yl]propoxy}phenyl)-1H-pyrazol-4-yl]methanone]: 2.2 nM; `CC(=O)c1cnn(-c2ccc(OCCCN3CCC[C@H]3C)cc2)c1` [Example 27, 1-[1-(4-{3-[(2R)-2-methylpyrrolidin-1-yl]propoxy}phenyl)-1H-pyrazol-4-yl]ethanone]: 1.6 nM. Next, `C[C@@H]1CCCN1CCCOc1ccc(-n2cc(C(=O)N3CCOCC3)cn2)cc1Br` [Example 64, [1-(3-bromo-4-{3-[(2R)-2-methylpyrrolidin-1-yl]propoxy}phenyl)-1H-pyrazol-4-yl](morpholin-4-yl)methanone]: 10 nM; `C[C@@H]1CCCN1CCCOc1ccc(-n2cc(N(C)S(C)(=O)=O)cn2)cc1` [Example 49, N-methyl-N-[1-(4-{3-[(2R)-2-methylpyrrolidin-1-yl]propoxy}phenyl)-1H-pyrazol-4-yl]methanesulfonamide]: 3.1 nM. In the case of `CC1CCCN1CCCOc1ccc(-n2cc(N3C(=O)CCC3=O)cn2)cc1` (centres unmarked) [Example 52, 1-(1-{4-[3-(2-methylpyrrolidin-1-yl)propoxy]phenyl}-1H-pyrazol-4-yl)pyrrolidine-2,5-dione], the half-inhibitory concentration (IC50) is 6 nM.

On to `C[C@@H]1CCCN1CCCOc1ccc(-n2cc(NC(=O)c3cccnc3)cn2)cc1` [Example 43, N-[1-(4-{3-[(2R)-2-methylpyrrolidin-1-yl]propoxy}phenyl)-1H-pyrazol-4-yl]pyridine-3-carboxamide], for which the IC50 came to 1 nM. Under `C[C@@H]1CCCN1CCCCOc1ccc(-n2cc(C(=O)N3CCOCC3)cn2)cc1` [Example 61, [1-(4-{4-[(2R)-2-methylpyrrolidin-1-yl]butoxy}phenyl)-1H-pyrazol-4-yl](morpholin-4-yl)methanone] stands 39.2 nM; under `O=C(Nc1ccc(F)cc1)c1cnn(-c2ccc(OCCCN3CCCC3)cc2)c1` [Example 16, N-(4-fluorophenyl)-1-[4-(3-pyrrolidin-1-ylpropoxy)phenyl]-1H-pyrazole-4-carboxamide], 5.9 nM.

With `CC(C)(C)NC(=O)c1cnn(-c2ccc(OCCCN3CCCC3)cc2)c1` [Example 13, N-tert-butyl-1-[4-(3-pyrrolidin-1-ylpropoxy)phenyl]-1H-pyrazole-4-carboxamide], the IC50 is 6.1 nM. Regarding `C[C@@H]1CCCN1CCCOc1ccc(-n2cc(NC(=O)c3ccc(O)cc3)cn2)cc1` [Example 42, 4-hydroxy-N-[1-(4-{3-[(2R)-2-methylpyrrolidin-1-yl]propoxy}phenyl)-1H-pyrazol-4-yl]benzamide], the IC50 came to 1.7 nM. Next, `CC(=O)N(C)c1cnn(-c2ccc(OCCCN3CCC[C@H]3C)cc2)c1` [Example 38, N-methyl-N-[1-(4-{3-[(2R)-2-methylpyrrolidin-1-yl]propoxy}phenyl)-1H-pyrazol-4-yl]acetamide]: 0.9 nM; `CC1CCCN1CCCOc1ccc(-n2cc(C(=O)c3ccccn3)cn2)cc1` (centres unmarked) [Example 25, (1-{4-[3-(2-methylpyrrolidin-1-yl)propoxy]phenyl}-1H-pyrazol-4-yl)(pyridin-2-yl)methanone]: 3.5 nM; `C[C@@H]1CCCN1CCCOc1ccc(-n2cc(NS(=O)(=O)c3cccnc3)cn2)cc1` [Example 51, N-[1-(4-{3-[(2R)-2-methylpyrrolidin-1-yl]propoxy}phenyl)-1H-pyrazol-4-yl]pyridine-3-sulfonamide]: 13.7 nM. Next, `C[C@@H]1CCCN1CCCOc1ccc(-n2cc(C(=O)N(CCO)CC(=O)O)cn2)cc1` [Example 68, N-(2-hydroxyethyl)-N-{[1-(4-{3-[(2R)-2-methylpyrrolidin-1-yl]propoxy}phenyl)-1H-pyrazol-4-yl]carbonyl}glycine]: 74.8 nM; `C[C@H]1CCCN1CCCOc1ccc(-n2cc(C#N)cn2)cc1` [Example 5, 1-(4-{3-[(2S)-2-methylpyrrolidin-1-yl]propoxy}phenyl)-1H-pyrazole-4-carbonitrile]: 10.8 nM. Next, `C[C@@H]1CCCN1CCOc1ccc(-n2cc(C(=O)N3CCOCC3)cn2)cc1` [Example 60, [1-(4-{2-[(2R)-2-methylpyrrolidin-1-yl]ethoxy}phenyl)-1H-pyrazol-4-yl](morpholin-4-yl)methanone]: 1560 nM; `C[C@@H]1CCCN1CCCOc1ccc(-n2cc([N+](=O)[O-])cn2)cc1` [Example 28, 1-(4-{3-[(2R)-2-methylpyrrolidin-1-yl]propoxy}phenyl)-4-nitro-1H-pyrazole]: 3.1 nM; `CC1CCN(CCCOc2ccc(-n3cc(C(=O)N4CCOCC4)cn3)cc2)C1` (centres unmarked) [Example 57, (1-{4-[3-(3-methylpyrrolidin-1-yl)propoxy]phenyl}-1H-pyrazol-4-yl)(morpholin-4-yl)methanone]: 50.7 nM. Turning to `CC1CCCN1CCCOc1ccc(-n2cc(C(=O)Nc3ccc(F)cc3)cn2)cc1` (centres unmarked) [Example 15, N-(4-fluorophenyl)-1-{4-[3-(2-methylpyrrolidin-1-yl)propoxy]phenyl}-1H-pyrazole-4-carboxamide], the IC50 turned out to be 1.8 nM.

In the case of `C[C@H]1CCCN1CCCOc1ccc(-n2cc(N3CCCC3=O)cn2)cc1` [Example 31, 1-[1-(4-{3-[(2S)-2-methylpyrrolidin-1-yl]propoxy}phenyl)-1H-pyrazol-4-yl]pyrrolidine-2-one], the half-maximal inhibitory concentration (IC50) was determined as 5.1 nM. Take `CC1CCCN1CCCOc1ccc(-n2cc(C(=O)N3CCC3)cn2)cc1` (centres unmarked) [Example 21, azetidin-1-yl-(1-{4-[3-(2-methylpyrrolidin-1-yl)propoxy]phenyl}-1H-pyrazol-4-yl)methanone]: the IC50 came to 5.7 nM. In the case of `O=C(c1cnn(-c2ccc(OCCCN3CCCC3(F)F)cc2)c1)N1CCOCC1` [Example 59, (1-{4-[3-(2,2-difluoropyrrolidin-1-yl)propoxy]phenyl}-1H-pyrazol-4-yl)(morpholin-4-yl)methanone], the 50% inhibitory concentration (IC50) was found to be 1180 nM. Next, `CC1CCCN1CCCOc1ccc(-n2cc(C(=O)NCc3ccc(F)cc3)cn2)cc1` (centres unmarked) [Example 18, 1-{4-[3-(2-methylpyrrolidin-1-yl)-propoxy]-phenyl}-1H-pyrazole-4-carboxylic acid 4-fluorobenzylamide]: 3 nM.
